Test results reported in patent US9814714B2, “Kinase modulation, and indications therefor” (Plexxikon Inc., priority 2015, dated 2017).
Where two headings read alike, the source gives them in different places.

Experiments:
[1] = target: BRAF (Homo sapiens, UniProt P15056); assay: In vitro RAF kinase biochemical assay, wild-type BRAF
Experimental: (§1) The in vitro RAF kinase activities were determined by measuring phosphorylation of a biotinylated substrate peptide as described in Tsai et al 2008. Formula II was tested against a panel of 287 kinases at concentrations of 1 μM in duplicate. […] The 287 kinases represent all major branches of the kinome phylogenetic tree. The inhibition screen of 287 kinases was carried out under contract as complementary panels at Invitrogen (Life Technologies, WI, USA) SelectScreen™ profiling service, DiscoverX (CA, USA) KINOMEScan™ service, and Reaction Biology Corporation (PA, USA) Kinase HotSpot^SM service.
BRAF, residues L416 through H766 fused at the N-terminus with a GST tag, was produced in insect cells, and BRAF was purchased from Millipore (Catalog #14-530).
(§2) 1) Test compounds in DMSO were serially diluted and plated into 384-well assay plates at 1 μL/well.
(§3) 2) Added were 15 μL/well of RAF enzyme and biotinylated-MEK1 substrate in kinase buffer.
(§4) 3) Added were 4 μL of ATP (500 μM) in kinase buffer.
(§5) 5) After a brief spin down, the plate was incubated at about room temperature for 40-50 minutes. 6) Added was 5 μL of Stop buffer at final EDTA 20 mM; anti-phospho-MEK1 1:2,500; donor/acceptor beads 3 μg/mL. 7) After brief spin down, the plate was incubated at room temperature for about 3 hours. 8) The plate was read on the Envision multilabel plate reader (Perkin Elmer). […] 2. Results

[2] = target: BRAF^V600E (Homo sapiens, UniProt P15056, V600E); assay: In vitro RAF kinase biochemical assay, BRAF V600E
Experimental: as §1
(§6) BRAF proteins were produced in insect cells at Plexxikon Inc. as N-terminally His-tagged fragments encompassing the kinase domain.
as §2, §3, §4, §5

[3] = tested on: pMEK in B9 cells (HRAS-Q61L); assay: Phospho-MEK AlphaScreen assay, pMEK activation in B9; format: cell-based, murine; details: Mus musculus
Experimental: (§7) Using AlphaScreen® technology, the ability of Formula I to affect the phosphorylation of ERK and MEK in the cells was measured quantitatively. Following treatment with compound, the cells were lysed, and a sample of the lysate was transferred to an assay plate. The lysate was mixed with antibodies directed against total ERK/MEK, antibodies that recognize specific phosphorylation sites on ERK/MEK, AlphaScreen® anti-mouse IgG Acceptor beads, and Streptavidin Donor beads. Upon excitation of the donor beads with laser light at 680 nm, singlet oxygen was produced. This singlet oxygen was rapidly quenched, unless the AlphaScreen® Acceptor beads were in close proximity, in which case a proximity signal can be measured at 580 nm. In the presence of phosphorylated ERK/MEK, there is a very strong proximity signal. BRAF-V600 inhibitors affect a decrease in this proximity signal in cells expressing BRAF-V600E (e.g. A375) through a decrease in phosphorylation of the BRAF effectors ERK and MEK.
(§8) 1. One day before the assay, 50,000 cells were plated in each well of a 96-well tissue-culture-treated plate (Corning #3610) in a 50 μL volume. Cells were incubated at 37° C. overnight.
(§9) 2. Compounds were diluted in DMSO to 500× final concentration. Each compound was plated as an 8-point titration, using 1:3 dilutions in DMSO. The maximum concentration was about 5 mM.
3. […]

[4] = target: BRAF_V600G (Homo sapiens, UniProt P15056, V600G); assay: RAF kinase biochemical assay, BRAF V600G; details: Table 3; ATP 100 μM
Experimental: as §6, §2, §3, §4, §5

[5] = tested on: pMEK in IPC-298 cells (NRAS-Q61L); assay: Phospho-MEK AlphaScreen assay, pMEK activation in IPC-298; format: cell-based; details: Homo sapiens
Experimental: as §7, §8, §9
3. […]

[6] = tested on: pMEK in HCT116 cells (KRAS-G13D); assay: Phospho-MEK AlphaScreen assay, pMEK activation in HCT116; format: cell-based; details: Homo sapiens, HCT-116
Experimental: as §7, §8, §9
3. […]

[7] = tested on: cell model that expresses the same HRAS mutation prevalent in squamous cell tumors; assay: HRAS mutant cell model: growth and MAPK pathway response gene expression; format: cell-based
Text: In a cell model that expresses the same HRAS mutation prevalent in squamous cell tumors from patients treated with RAF inhibitors, first-generation RAF inhibitors stimulate the in vitro and in vivo growth of the cells and induce the expression of MAPK pathway response genes including EGFR ligands. […] Based on these advantageous properties of the compound of either Formula I or Formula II, enhanced tolerability and, in turn, increased drug dosage may be obtained.

[8] = target: T1, CRAF (Homo sapiens, UniProt P04049, Y340D/Y341D); assay: In vitro RAF kinase biochemical assay, activated CRAF
T1 construct: GST (N); purchased Millipore 14-352; host or cells: insect cells
Experimental: as §2, §3, §4, §5

[9] = Table 1, average of more than 4 experiments
[10] = Table 1, average of more than 4 experiments, read-out: Biochemical IC50 BRAF^V600E

T1 sequence (P04049 307-648 Y340D/Y341D): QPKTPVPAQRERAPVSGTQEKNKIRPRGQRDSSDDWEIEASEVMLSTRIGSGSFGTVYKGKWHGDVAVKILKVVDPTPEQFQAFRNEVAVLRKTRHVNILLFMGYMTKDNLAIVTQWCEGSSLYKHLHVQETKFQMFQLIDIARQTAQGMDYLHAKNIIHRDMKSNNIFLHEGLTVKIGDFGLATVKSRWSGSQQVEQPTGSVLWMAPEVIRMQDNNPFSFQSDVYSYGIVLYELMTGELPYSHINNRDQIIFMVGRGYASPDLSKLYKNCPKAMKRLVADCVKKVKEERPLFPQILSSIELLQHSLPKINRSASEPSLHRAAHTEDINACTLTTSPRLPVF
Chain of BRAF (P15056 416-766): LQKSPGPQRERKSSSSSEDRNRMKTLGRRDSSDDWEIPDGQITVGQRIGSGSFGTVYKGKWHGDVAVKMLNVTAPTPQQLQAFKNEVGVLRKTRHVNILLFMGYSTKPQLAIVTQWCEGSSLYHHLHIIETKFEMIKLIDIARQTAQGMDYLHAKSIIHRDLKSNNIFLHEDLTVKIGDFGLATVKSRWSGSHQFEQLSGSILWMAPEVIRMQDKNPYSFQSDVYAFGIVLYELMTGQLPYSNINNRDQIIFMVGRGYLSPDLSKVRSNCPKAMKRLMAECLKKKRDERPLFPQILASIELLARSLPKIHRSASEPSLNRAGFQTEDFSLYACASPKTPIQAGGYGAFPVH
Chain of BRAF^V600E (P15056 448-723 V600E): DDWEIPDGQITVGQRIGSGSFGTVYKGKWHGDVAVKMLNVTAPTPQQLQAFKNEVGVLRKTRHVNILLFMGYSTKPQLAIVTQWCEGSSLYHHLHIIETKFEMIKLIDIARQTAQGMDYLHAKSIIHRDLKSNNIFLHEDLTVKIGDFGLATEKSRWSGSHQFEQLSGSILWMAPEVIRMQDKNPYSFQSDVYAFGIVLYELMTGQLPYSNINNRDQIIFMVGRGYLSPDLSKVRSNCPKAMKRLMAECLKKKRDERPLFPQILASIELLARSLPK
Chain of BRAF_V600G (P15056 432-726 V600G): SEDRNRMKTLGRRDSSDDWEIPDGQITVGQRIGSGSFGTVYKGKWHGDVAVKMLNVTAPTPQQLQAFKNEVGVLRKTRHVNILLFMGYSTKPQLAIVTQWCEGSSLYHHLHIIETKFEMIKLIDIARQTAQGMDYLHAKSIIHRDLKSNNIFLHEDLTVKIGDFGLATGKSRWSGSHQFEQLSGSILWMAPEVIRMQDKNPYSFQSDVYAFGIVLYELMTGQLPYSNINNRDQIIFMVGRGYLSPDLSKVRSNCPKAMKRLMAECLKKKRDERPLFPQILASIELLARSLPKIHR

SMILES | IC50 [1, 9] | IC50 ([1]; Table 3, ATP 100 μM) | IC50 against mutated BRAF kinases including BRAFV600E (in words) [2] | IC50 [2, 10] | IC50 ([2]; Table 3, ATP 100 μM, read-out: Biochemical IC50 BRAF_V600E) | EC50 [3] | IC50 [4] | EC50 [5] | EC50 [6] | Stimulation of in vitro and in vivo growth and induction of MAPK pathway response genes including EGFR ligands (in words) [7] | IC50 [8, 9] | IC50 ([8]; Table 3, ATP 100 μM)
O=C(c1c(F)ccc(NS(=O)(=O)N2CC[C@@H](F)C2)c1F)c1c[nH]c2ncc(-c3cnc(C4CC4)nc3)cc12 [Formula I, (3R)—N-[3-[5-(2-cyclopropylpyrimidin-5-yl)-1H-pyrrolo[2,3-b]pyridine-3-carbonyl]-2,4-difluorophenyl]-3-fluoropyrrolidine-1-sulfonamide] | 140 nM | 14.3 nM | single digit | 4.2 nM | 4.4 nM | 10000 nM | 6.3 nM | 10000 nM | 10000 nM | no such effect | 91 nM | 22.6 nM
CCN(C)S(=O)(=O)Nc1ccc(F)c(C(=O)c2c[nH]c3ncc(-c4cnc(C5CC5)nc4)cc23)c1F [Formula II, 5-(2-cyclopropylpyrimidin-5-yl)-3-[3-[[ethyl(methyl)sulfamoyl]amino]-2,6-difluoro-benzoyl]-1H-pyrrolo[2,3-b]pyridine] | 14 nM | – | single digit | 3.8 nM | – | – | – | – | – | no such effect | 23 nM | –
CCCS(=O)(=O)Nc1ccc(F)c(C(=O)c2c[nH]c3ncc(-c4ccc(Cl)cc4)cc23)c1F [Vemurafenib, vemurafenib, reference compound] | – | – | – | – | – | 588 nM | – | 1010 nM | 769 nM | – | – | –
